Test [1] deals with T1, baculovirus-expressed ALK (Homo sapiens, UniProt Q9UM73).
T1 construct: host or cells: baculovirus expression system
As to the kind of experiment: ALK Kinase Assay (ELISA-type, time-resolved fluorescence). In kind it is biochemical. The note with it: 1 μM ATP (Km level); read-out: ALK Activity (ALK Kinase Inhibition, IC50). An outline of the steps:
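Substrate coating: phospholipase C-γ, 10 μg/mL in TBS. Kinase step: 30 ng/ml ALK, 15 min, 37° C. Detection and analysis: Eu-N1 PT66 antibody, with IC50 fitted as a sigmoidal variable-slope dose-response curve.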

Test [2] addresses T2, c-Met (cytoplasmic domain) (Homo sapiens, UniProt P08581).
T2 construct: 10 ng/mL c-Met (cytoplasmic domain, Invitrogen Corporation #PV3143); purchased Invitrogen Corporation PV3143
As to the kind of experiment: c-Met Kinase Assay (same methods as for ALK, with modifications). The note with it: 1 μM ATP (Km level); read-out: cMet Activity (c-Met Kinase Inhibition, IC50). Format: biochemical. In a few lines: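 This plate-based kinase format uses immobilized phospholipase C-γ as substrate, phosphorylated by c-Met cytoplasmic domain (10 ng/mL) at 37° C for 15 minutes.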

pIC50: −log10 of the molar value. Where only a bound is given, the exact number is not on record here.

Experimental findings from patent publication US8148391B2 (Cephalon, Inc., priority 2006, dated 2012) are described below.

For orientation: pIC50 means the IC50 on a negative log10 scale, so that one unit is a factor of ten.

T1 sequence (Q9UM73 19-1620): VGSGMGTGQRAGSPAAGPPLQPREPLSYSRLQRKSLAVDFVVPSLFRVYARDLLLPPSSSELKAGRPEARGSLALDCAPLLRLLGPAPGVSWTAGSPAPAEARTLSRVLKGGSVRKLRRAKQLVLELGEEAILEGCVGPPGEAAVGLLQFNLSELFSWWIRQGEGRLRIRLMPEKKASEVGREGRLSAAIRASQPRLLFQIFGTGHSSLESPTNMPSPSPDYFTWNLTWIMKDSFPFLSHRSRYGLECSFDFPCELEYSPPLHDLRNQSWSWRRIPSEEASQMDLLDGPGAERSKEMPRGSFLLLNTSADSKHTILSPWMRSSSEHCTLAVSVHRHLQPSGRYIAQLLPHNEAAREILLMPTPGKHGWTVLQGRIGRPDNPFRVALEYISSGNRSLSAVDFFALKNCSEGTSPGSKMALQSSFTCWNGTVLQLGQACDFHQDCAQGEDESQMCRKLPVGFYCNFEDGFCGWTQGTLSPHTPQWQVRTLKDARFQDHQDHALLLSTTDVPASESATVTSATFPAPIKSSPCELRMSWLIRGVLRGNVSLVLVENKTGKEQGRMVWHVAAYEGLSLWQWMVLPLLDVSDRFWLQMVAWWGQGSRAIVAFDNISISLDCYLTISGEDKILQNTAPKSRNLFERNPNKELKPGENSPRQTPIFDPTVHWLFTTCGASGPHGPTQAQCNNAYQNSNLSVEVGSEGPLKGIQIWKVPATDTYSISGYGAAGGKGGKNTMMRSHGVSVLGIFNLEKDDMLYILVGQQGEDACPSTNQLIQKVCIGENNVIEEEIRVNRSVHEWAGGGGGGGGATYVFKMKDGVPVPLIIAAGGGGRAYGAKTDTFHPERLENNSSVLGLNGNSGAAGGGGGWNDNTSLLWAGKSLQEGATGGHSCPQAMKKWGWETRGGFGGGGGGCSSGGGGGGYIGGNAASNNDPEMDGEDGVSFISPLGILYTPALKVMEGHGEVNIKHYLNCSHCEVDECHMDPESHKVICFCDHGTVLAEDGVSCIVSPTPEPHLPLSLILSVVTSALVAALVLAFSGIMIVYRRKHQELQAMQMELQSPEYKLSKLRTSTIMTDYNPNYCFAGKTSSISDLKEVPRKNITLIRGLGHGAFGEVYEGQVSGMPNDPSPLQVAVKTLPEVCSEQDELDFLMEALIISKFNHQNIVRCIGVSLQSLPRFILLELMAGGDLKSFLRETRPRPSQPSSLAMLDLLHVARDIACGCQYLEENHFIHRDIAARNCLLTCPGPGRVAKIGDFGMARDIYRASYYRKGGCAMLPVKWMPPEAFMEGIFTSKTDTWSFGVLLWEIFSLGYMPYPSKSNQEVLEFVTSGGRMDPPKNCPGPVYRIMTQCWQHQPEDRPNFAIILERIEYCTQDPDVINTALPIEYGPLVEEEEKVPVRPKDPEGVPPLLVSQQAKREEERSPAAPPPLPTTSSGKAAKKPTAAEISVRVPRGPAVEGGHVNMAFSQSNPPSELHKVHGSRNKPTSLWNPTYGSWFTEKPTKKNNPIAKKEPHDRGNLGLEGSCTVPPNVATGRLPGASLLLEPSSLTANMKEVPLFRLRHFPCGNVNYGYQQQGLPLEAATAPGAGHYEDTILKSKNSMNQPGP
T2 sequence (P08581 956-1390 limits assumed): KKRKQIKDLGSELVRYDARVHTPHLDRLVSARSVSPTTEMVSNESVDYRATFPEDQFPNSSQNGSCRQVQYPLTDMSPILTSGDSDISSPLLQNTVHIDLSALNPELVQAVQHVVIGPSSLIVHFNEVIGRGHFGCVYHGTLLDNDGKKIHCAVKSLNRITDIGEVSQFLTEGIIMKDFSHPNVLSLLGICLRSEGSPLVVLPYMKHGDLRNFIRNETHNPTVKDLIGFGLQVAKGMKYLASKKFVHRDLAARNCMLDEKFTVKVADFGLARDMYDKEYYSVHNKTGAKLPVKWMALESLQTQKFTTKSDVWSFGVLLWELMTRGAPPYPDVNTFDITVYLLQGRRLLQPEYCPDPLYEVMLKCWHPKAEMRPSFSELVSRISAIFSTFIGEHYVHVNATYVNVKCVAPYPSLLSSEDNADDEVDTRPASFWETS

On to `CCN1C(=O)CCC(C)(C)c2ccc(Nc3ncc(Cl)c(Nc4ccc(N5CCOCC5)cc4S(=O)(=O)N(C)C)n3)cc21` [Example 851, 2-[5-Chloro-2-(1-ethyl-5,5-dimethyl-2-oxo-2,3,4,5-tetrahydro-1H-benzo[b]azepin-8-ylamino)-pyrimidin-4-ylamino]-N,N-dimethyl-5-morpholin-4-yl-benzenesulfonamide], for which the pIC50 is more than 7.00 in test [1] and 5.00 to 6.00 in test [2].

With `COCCN1CCc2ccc(Nc3ncc(Cl)c(Nc4ccc(N(C)C)cc4S(=O)(=O)N(C)C)n3)cc2CC1` [Example 852, 2-{5-Chloro-2-[3-(2-methoxy-ethyl)-2,3,4,5-tetrahydro-1H-benzo[d]azepin-7-ylamino]-pyrimidin-4-ylamino}-5-dimethylamino-N,N-dimethyl-benzenesulfonamide], the negative logarithm of the IC50 (pIC50) in test [1] was more than 7.00; in test [2], 5.00 to 6.00.

Turning to `COCCN1CCc2ccc(Nc3ncc(Cl)c(Nc4ccc(N5CCOCC5)cc4S(=O)(=O)N(C)C)n3)cc2CC1` [Example 853, 2-{5-Chloro-2-[3-(2-methoxy-ethyl)-2,3,4,5-tetrahydro-1H-benzo[d]azepin-7-ylamino]-pyrimidin-4-ylamino}-N,N-dimethyl-5-morpholin-4-yl-benzenesulfonamide], the negative logarithm of the IC50 (pIC50) in test [1] is more than 7.00; in test [2] it was 5.00 to 6.00.

Turning to `COCCN1CCc2cc(Nc3ncc(Cl)c(Nc4ccccc4S(=O)(=O)N4CC[C@H](C)C4)n3)c(OC)cc2CC1` [Example 854, 5-Chloro-N(2)-[8-methoxy-3-(2-methoxy-ethyl)-2,3,4,5-tetrahydro-1H-benzo[d]azepin-7-yl]-N(4)-[2-((S)-3-methyl-pyrrolidine-1-sulfonyl)-phenyl]-pyrimidine-2,4-diamine], the pIC50 in test [1] was more than 7.00; in test [2], 6.00 to 7.00.

For `COc1cc2c(cc1Nc1ncc(Cl)c(Nc3ccccc3S(=O)(=O)N3CC[C@H](C)C3)n1)CCN(CCO)CC2` [Example 855, 2-(7-{5-Chloro-4-[2-((S)-3-methyl-pyrrolidine-1-sulfonyl)-phenylamino]-pyrimidin-2-ylamino}-8-methoxy-1,2,4,5-tetrahydro-benzo[d]azepin-3-yl)-ethanol], the pIC50 in test [1] was more than 7.00; in test [2], 6.00 to 7.00.

For `COc1cc2c(cc1Nc1ncc(Cl)c(Nc3ccccc3S(=O)(=O)N3CC[C@H](C)C3)n1)CCN(CC(=O)N(C)C)CC2` [Example 856, 2-(7-{5-Chloro-4-[2-((S)-3-methyl-pyrrolidine-1-sulfonyl)-phenylamino]-pyrimidin-2-ylamino}-8-methoxy-1,2,4,5-tetrahydro-benzo[d]azepin-3-yl)-N,N-dimethyl-acetamide], the negative-log IC50 (pIC50) in test [1] was more than 7.00; in test [2] it was 6.00 to 7.00.

With `NC(=O)C1C2C=CC(C2)C1Nc1nc(Nc2cccc3c2OCCCC3)ncc1Cl` (stereo not drawn) [Example 861, (2-exo-3-exo)-3-[5-Chloro-2-(2,3,4,5-tetrahydro-benzo[b]oxepin-9-ylamino)-pyrimidin-4-ylamino]-bicyclo[2.2.1]hept-5-ene-2-carboxylic acid amide], the pIC50 in test [1] was more than 7.00; in test [2] it was less than 5.00.

In the case of `COc1cc(N2CCOCC2)ccc1Nc1nc(Nc2cccc3c2OCCCC3)ncc1Cl` [Example 862, 5-Chloro-N*4*-(2-methoxy-4-morpholin-4-yl-phenyl)-N*2*-(2,3,4,5-tetrahydrobenzo[b]oxepin-9-yl)pyrimidine-2,4-diamine], the pIC50 in test [1] is more than 7.00; in test [2], less than 5.00.

For the compound `CS(=O)(=O)N[C@@H]1CCCC[C@H]1Nc1nc(Nc2cccc3c2OCCCC3)ncc1Cl` [Example 863, N-{(1R,2R)-2-[5-Chloro-2-(2,3,4,5-tetrahydro-benzo[b]oxepin-9-ylamino)pyrimidin-4-ylamino]-cyclohexyl}-methanesulfonamide], the pIC50 in test [1] is more than 7.00; in test [2], less than 5.00.

Regarding `COc1ccccc1Nc1nc(Nc2cccc3c2OCCCC3)ncc1Cl` [Example 864, 5-Chloro-N*4*-(2-methoxy-phenyl)-N*2*-(2,3,4,5-tetrahydrobenzo[b]oxepin-9-yl)-pyrimidine-2,4-diamine], the negative logarithm of the IC50 (pIC50) was 5.00 to 6.00 in test [1] and less than 5.00 in test [2].

As to `COc1cc(N2CCOCC2)ccc1Nc1nc(Nc2ccc3c(c2)CCC(N2CCOCC2)CC3)ncc1Cl` (stereo not drawn) [Example 865, 5-Chloro-N*4*-(2-methoxy-4-morpholin-4-yl-phenyl)-N*2*-(7-morpholin-4-yl-6,7,8,9-tetrahydro-5H-benzocyclohepten-2-yl)-pyrimidine-2,4-diamine], the pIC50 was more than 7.00 in test [1] and 5.00 to 6.00 in test [2].

Consider `CCNC(=O)c1ccccc1Nc1nc(Nc2ccc3c(c2)CCC(N2CCOCC2)CC3)ncc1Cl` (stereo not drawn) [Example 866, 2-[5-Chloro-2-(7-morpholin-4-yl-6,7,8,9-tetrahydro-5H-benzocyclohepten-2-ylamino)-pyrimidin-4-ylamino]-N-ethyl-benzamide], for which the negative logarithm of the IC50 (pIC50) in test [1] and in test [2] was more than 7.00 each time.

Regarding `NC(=O)C1C2C=CC(C2)C1Nc1nc(Nc2ccc3c(c2)CCC(N2CCOCC2)CC3)ncc1Cl` (stereo not drawn) [Example 867, 3-[5-Chloro-2-(7-morpholin-4-yl-6,7,8,9-tetrahydro-5H-benzocyclohepten-2-ylamino)-pyrimidin-4-ylamino]-bicyclo[2.2.1]hept-5-ene-2-carboxylic acid amide], the figures for the pIC50 in test [1] and in test [2] were more than 7.00 and 6.00 to 7.00, respectively.

As to `CNC(=O)c1ccccc1Nc1nc(Nc2ccc3c(c2OC)CCC(=O)CC3)ncc1Cl` [Example 868, 2-[5-Chloro-2-(1-methoxy-7-oxo-6,7,8,9-tetrahydro-5H-benzocyclohepten-2-ylamino)-pyrimidin-4-ylamino]-N-methyl-benzamide], the negative-log IC50 (pIC50) in test [1] is more than 7.00; in test [2] it was less than 5.00.

With `COc1c(Nc2ncc(Cl)c(N[C@H]3[C@@H](C(N)=O)[C@@H]4C=C[C@H]3C4)n2)ccc2c1CCC(=O)CC2` [Example 869, (1S,2S,3R,4R)-3-[5-Chloro-2-(1-methoxy-7-oxo-6,7,8,9-tetrahydro-5H-benzocyclohepten-2-ylamino)-pyrimidin-4-ylamino]-bicyclo[2.2.1]hept-5-ene-2-carboxylic acid amide], the negative logarithm of the IC50 (pIC50) in test [1] was more than 7.00; in test [2] it was less than 5.00.

Consider `CC1(C)CCCOc2c(Nc3ncc(Cl)c(N[C@@H]4[C@H](C(N)=O)[C@H]5C=C[C@@H]4C5)n3)cccc21` [Example 870, (1R,2R,3S,4S)-3-[5-Chloro-2-(5,5-dimethyl-2,3,4,5-tetrahydro-benzo[b]oxepin-9-ylamino)-pyrimidin-4-ylamino]-bicyclo[2.2.1]hept-5-ene-2-carboxylic acid amide], for which the pIC50 was 6.00 to 7.00 in test [1] and less than 5.00 in test [2].

Take `CN1C(=O)CCCc2cc(Nc3ncc(Cl)c(Nc4ccccc4C(=O)NCCC#N)n3)ccc21` [Example 871, 2-[5-Chloro-2-(1-methyl-2-oxo-2,3,4,5-tetrahydro-1H-benzo[b]azepin-7-ylamino)-pyrimidin-4-ylamino]-N-(2-cyano-ethyl)-benzamide]: the negative logarithm of the IC50 (pIC50) in test [1] and in test [2] was more than 7.00 throughout.

With `COc1cc(N2CCN(C)CC2)ccc1Nc1nc(Nc2cccc3c2OCCCC3(C)C)ncc1Cl` [Example 872, 5-Chloro-N*2*-(5,5-dimethyl-2,3,4,5-tetrahydro-benzo[b]oxepin-9-yl)-N*4*-[2-methoxy-4-(4-methyl-piperazin-1-yl)-phenyl]-pyrimidine-2,4-diamine], the values for the negative-log IC50 (pIC50) in test [1] and in test [2] were more than 7.00 and less than 5.00, respectively.

As for `CCNC(=O)c1ccccc1Nc1nc(Nc2cccc3c2OCCCC3(C)C)ncc1Cl` [Example 873, 2-[5-Chloro-2-(5,5-dimethyl-2,3,4,5-tetrahydro-benzo[b]oxepin-9-ylamino)-pyrimidin-4-ylamino]-N-ethyl-benzamide], the pIC50 in test [1] was more than 7.00; in test [2], less than 5.00.

`CCNC(=O)c1cccc(F)c1Nc1nc(Nc2cccc3c2OCCCC3(C)C)ncc1Cl` [Example 874, 2-[5-Chloro-2-(5,5-dimethyl-2,3,4,5-tetrahydro-benzo[b]oxepin-9-ylamino)-pyrimidin-4-ylamino]-N-ethyl-3-fluoro-benzamide]: the pIC50 was 6.00 to 7.00 in test [1] and less than 5.00 in test [2].

In the case of `CC1(C)CCCOc2c(Nc3ncc(Cl)c(N[C@@H]4CCCC[C@H]4NS(C)(=O)=O)n3)cccc21` [Example 875, N-{(1R,2R)-2-[5-Chloro-2-(5,5-dimethyl-2,3,4,5-tetrahydro-benzo[b]oxepin-9-ylamino)-pyrimidin-4-ylamino]-cyclohexyl}-methanesulfonamide], the negative-log IC50 (pIC50) in test [1] is more than 7.00; in test [2], less than 5.00.

As for `COc1cc(N2CCOCC2)ccc1Nc1nc(Nc2cccc3c2OCCCC3(C)C)ncc1Cl` [Example 876, 5-Chloro-N*2*-(5,5-dimethyl-2,3,4,5-tetrahydro-benzo[b]oxepin-9-yl)-N*4*-(2-methoxy-4-morpholin-4-yl-phenyl)-pyrimidine-2,4-diamine], the negative-log IC50 (pIC50) in test [1] is 6.00 to 7.00; in test [2], less than 5.00.

In the case of `CC1(C)CCCOc2c(Nc3ncc(Cl)c(Nc4ccccc4C(=O)NCCC#N)n3)cccc21` [Example 877, 2-[5-Chloro-2-(5,5-dimethyl-2,3,4,5-tetrahydro-benzo[b]oxepin-9-ylamino)-pyrimidin-4-ylamino]-N-(2-cyano-ethyl)-benzamide], the pIC50 in test [1] was 6.00 to 7.00; in test [2], less than 5.00.

In the case of `CC(C)S(=O)(=O)c1ccccc1Nc1nc(Nc2cccc3c2OCCCC3(C)C)ncc1Cl` [Example 878, 5-Chloro-N*2*-(5,5-dimethyl-2,3,4,5-tetrahydro-benzo[b]oxepin-9-yl)-N*4*-[2-(propane-2-sulfonyl)-phenyl]-pyrimidine-2,4-diamine], the pIC50 in test [1] is 6.00 to 7.00; in test [2], less than 5.00.
